Test results taken from ChEMBL document CHEMBL1201861, “Genomics of Drug Sensitity in Cancer screening data, Wellcome Trust Sanger Institute”.

Key:
Assay in all cases: cells
MSTO-211H = type: functional, cell-based, Homo sapiens; conditions: Homo sapiens, MSTO-211H
Description: SANGER: Inhibition of human MSTO-211H cell growth in a cell viability assay.

KP-4 = type: functional, cell-based, Homo sapiens; conditions: Homo sapiens, KP-4;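 note: human KP-4 cells, with growth inhibition read out through a cell viability assay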
Description: SANGER: Inhibition of human KP-4 cell growth in a cell viability assay.

EM-2 = type: functional, cell-based; conditions: Homo sapiens;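 note: growth inhibition of EM-2 cells, read out with a cell viability assay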
Description: SANGER: Inhibition of human EM-2 cell growth in a cell viability assay.

EFO-27 = type: functional, cell-based, Homo sapiens; conditions: Homo sapiens, EFO-27;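 note: growth inhibition of EFO-27 cells, read out with a cell viability assay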
Description: SANGER: Inhibition of human EFO-27 cell growth in a cell viability assay.

KM12 = type: functional, cell-based, Homo sapiens; conditions: Homo sapiens, KM12;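 note: KM12 cell growth inhibition, read out with a cell viability assay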
Description: SANGER: Inhibition of human KM12 cell growth in a cell viability assay.

HSC-2 = type: functional, cell-based, Homo sapiens; conditions: Homo sapiens, HSC-2;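 note: growth inhibition of human HSC-2 cells, read out by a cell viability assay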
Description: SANGER: Inhibition of human HSC-2 cell growth in a cell viability assay.

TE-11 = type: functional, cell-based, Homo sapiens; conditions: Homo sapiens, TE-11;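 note: growth inhibition of human TE-11 cells, read out by a cell viability assay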
Description: SANGER: Inhibition of human TE-11 cell growth in a cell viability assay.

BHY = type: functional, cell-based, Homo sapiens; conditions: Homo sapiens, BHY;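 note: cell growth inhibition read out by a viability assay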
Description: SANGER: Inhibition of human BHY cell growth in a cell viability assay.

SK-MEL-30 = type: functional, cell-based; conditions: Homo sapiens;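 note: growth inhibition of SK-MEL-30 cells, determined with a cell viability assay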
Description: SANGER: Inhibition of human SK-MEL-30 cell growth in a cell viability assay.

M059J = type: functional, cell-based, Homo sapiens; conditions: Homo sapiens, M059J;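 note: growth inhibition of M059J cells, read out with a cell viability assay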
Description: SANGER: Inhibition of human M059J cell growth in a cell viability assay.

D-542MG = type: functional, cell-based, Homo sapiens; conditions: Homo sapiens, D-542MG
Description: SANGER: Inhibition of human D-542MG cell growth in a cell viability assay.

COR-L88 = type: functional, cell-based; conditions: Homo sapiens;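 note: growth inhibition of COR-L88 cells, read out with a cell viability assay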
Description: SANGER: Inhibition of human COR-L88 cell growth in a cell viability assay.

SNU-C2B = type: functional, cell-based, Homo sapiens; conditions: Homo sapiens, SNU-C2B;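 note: cell viability readout used to measure compound-driven suppression of SNU-C2B cell proliferation, IC50 marking half-maximal growth inhibition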
Description: SANGER: Inhibition of human SNU-C2B cell growth in a cell viability assay.

OAW-28 = type: functional, cell-based, Homo sapiens; conditions: Homo sapiens, OAW-28;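 note: growth inhibition of OAW-28 cells, read out with a cell viability assay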
Description: SANGER: Inhibition of human OAW-28 cell growth in a cell viability assay.

Ramos-2G6-4C10 = type: functional, cell-based; conditions: Homo sapiens;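 note: growth inhibition of the cell line, measured by a cell viability read-out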
Description: SANGER: Inhibition of human Ramos-2G6-4C10 cell growth in a cell viability assay.

FaDu = type: functional, cell-based, Homo sapiens; conditions: Homo sapiens, FaDu;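 note: cell viability readout of growth inhibition in FaDu cells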
Description: SANGER: Inhibition of human FADU cell growth in a cell viability assay.

RPMI-2650 = type: functional, cell-based, Homo sapiens; conditions: Homo sapiens, RPMI-2650
Description: SANGER: Inhibition of human RPMI-2650 cell growth in a cell viability assay.

MDA-MB-361 = type: functional, cell-based, Homo sapiens; conditions: Homo sapiens, MDA-MB-361
GR-ST = type: functional, cell-based; conditions: Homo sapiens
Description: SANGER: Inhibition of human GR-ST cell growth in a cell viability assay.

COLO-680N = type: functional, cell-based, Homo sapiens; conditions: Homo sapiens, COLO-680N;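 note: cell viability assay used to measure inhibition of COLO-680N cell growth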
Description: SANGER: Inhibition of human COLO-680N cell growth in a cell viability assay.

COLO-678 = type: functional, cell-based, Homo sapiens; conditions: Homo sapiens, COLO-678
Description: SANGER: Inhibition of human COLO-678 cell growth in a cell viability assay.

KYSE-180 = type: functional, cell-based, Homo sapiens; conditions: Homo sapiens, KYSE-180;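 note: growth inhibition of KYSE-180 cells, read out with a cell viability assay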
Description: SANGER: Inhibition of human KYSE-180 cell growth in a cell viability assay.

NCI-H358 = type: functional, cell-based, Homo sapiens; conditions: Homo sapiens, NCI-H358;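 note: growth inhibition of NCI-H358 human cells, read out with a cell viability assay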
Description: SANGER: Inhibition of human NCI-H358 cell growth in a cell viability assay.

PFSK-1 = type: functional, cell-based, Homo sapiens; conditions: Homo sapiens, PFSK-1;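 note: cell viability assay measuring how strongly compounds suppress growth of human PFSK-1 cells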
Description: SANGER: Inhibition of human PFSK-1 cell growth in a cell viability assay.

KP-N-YS = type: functional, cell-based; conditions: Homo sapiens;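 note: cell viability assay measuring inhibition of cell line growth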
Description: SANGER: Inhibition of human KP-N-YS cell growth in a cell viability assay.

A204 = type: functional, cell-based, Homo sapiens; conditions: Homo sapiens, A204;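 note: growth inhibition of human A204 cells, read out with a cell viability assay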
Description: SANGER: Inhibition of human A204 cell growth in a cell viability assay.

NCI-H1563 = type: functional, cell-based, Homo sapiens; conditions: Homo sapiens, NCI-H1563;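 note: growth inhibition of human NCI-H1563 cells, read out with a cell viability assay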
Description: SANGER: Inhibition of human NCI-H1563 cell growth in a cell viability assay.

Ca9-22 = type: functional, cell-based, Homo sapiens; conditions: Homo sapiens, Ca9-22;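 note: growth inhibition of Ca9-22 cells, read out with a cell viability assay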
Description: SANGER: Inhibition of human Ca9-22 cell growth in a cell viability assay.

NMC-G1 = type: functional, cell-based, Homo sapiens; conditions: Homo sapiens, NMC-G1;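 note: growth inhibition of the NMC-G1 cell line, measured with a cell viability read-out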
Description: SANGER: Inhibition of human NMC-G1 cell growth in a cell viability assay.

HTC-C3 = type: functional, cell-based, Homo sapiens; conditions: Homo sapiens, HTC-C3;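 note: inhibition of cell growth, read out with a cell viability assay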
Description: SANGER: Inhibition of human HTC-C3 cell growth in a cell viability assay.

ACHN = type: functional, cell-based, Homo sapiens; conditions: Homo sapiens, ACHN;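 note: cell viability read-out used to gauge how strongly growth of human ACHN cells is suppressed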
Description: SANGER: Inhibition of human ACHN cell growth in a cell viability assay.

MKN-7 = type: functional, cell-based, Homo sapiens; conditions: Homo sapiens, MKN-7;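 note: growth inhibition of MKN-7 cells, read out with a cell viability assay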
Description: SANGER: Inhibition of human MKN7 cell growth in a cell viability assay.

MDA-MB-415 = type: functional, cell-based; conditions: Homo sapiens
D-336MG = type: functional, cell-based, Homo sapiens; conditions: Homo sapiens, D-336MG
Description: SANGER: Inhibition of human D-336MG cell growth in a cell viability assay.

TE-12 = type: functional, cell-based; conditions: Homo sapiens;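 note: growth inhibition of TE-12 cells, read out by a cell viability assay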
Description: SANGER: Inhibition of human TE-12 cell growth in a cell viability assay.

NCI-H1437 = type: functional, cell-based, Homo sapiens; conditions: Homo sapiens, NCI-H1437;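 note: growth inhibition of human NCI-H1437 cells, read out by a cell viability assay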
Description: SANGER: Inhibition of human NCI-H1437 cell growth in a cell viability assay.

SK-HEP1 = type: functional, cell-based, Homo sapiens, SK-HEP-1; conditions: Homo sapiens, SK-HEP1;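 note: cell viability readout used to quantify reduction in proliferation of human SK-HEP-1 cells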
Description: SANGER: Inhibition of human SK-HEP-1 cell growth in a cell viability assay.

LCLC-103H cell line = type: functional, cell-based, Homo sapiens; conditions: Homo sapiens, LCLC-103H
Description: SANGER: Inhibition of human LCLC-103H cell growth in a cell viability assay.

MDA-MB-175-VII = type: functional, cell-based, Homo sapiens; conditions: Homo sapiens, MDA-MB-175-VII
CAKI-1 = type: functional, cell-based, Homo sapiens; conditions: Homo sapiens, CAKI-1;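 note: growth inhibition of CAKI-1 cells, measured by a cell viability assay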
Description: SANGER: Inhibition of human CAKI-1 cell growth in a cell viability assay.

ES7 = type: functional, cell-based, Homo sapiens; conditions: Homo sapiens, ES7;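 note: growth inhibition of cultured human ES7 cells, read out as cell viability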
Description: SANGER: Inhibition of human ES7 cell growth in a cell viability assay.

KNS-42 = type: functional, cell-based, Homo sapiens; conditions: Homo sapiens, KNS-42;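 note: growth inhibition of KNS-42 cells, read out with a cell viability assay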
Description: SANGER: Inhibition of human KNS-42 cell growth in a cell viability assay.

NOS-1 = type: functional, cell-based, Homo sapiens; conditions: Homo sapiens, NOS-1;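 note: growth inhibition of the human NOS-1 cell line, read out with a cell viability assay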
Description: SANGER: Inhibition of human NOS-1 cell growth in a cell viability assay.

8505C = type: functional, cell-based, Homo sapiens; conditions: Homo sapiens, 8505C
Description: SANGER: Inhibition of human 8505C cell growth in a cell viability assay.

HuCCT-1 = type: functional, cell-based, Homo sapiens, HuCCT1; conditions: Homo sapiens, HuCCT-1;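 note: growth inhibition of HuCCT-1 cells, read out by a cell viability assay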
Description: SANGER: Inhibition of human HuCCT1 cell growth in a cell viability assay.

8-MG-BA = type: functional, cell-based, Homo sapiens; conditions: Homo sapiens, 8-MG-BA;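 note: growth inhibition of 8-MG-BA cells, read out with a cell viability assay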
Description: SANGER: Inhibition of human 8-MG-BA cell growth in a cell viability assay.

WM-115 = type: functional, cell-based, Homo sapiens; conditions: Homo sapiens, WM-115
Description: SANGER: Inhibition of human WM-115 cell growth in a cell viability assay.

KLE = type: functional, cell-based, Homo sapiens; conditions: Homo sapiens, KLE;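 note: growth inhibition of human KLE cells, read out with a cell viability assay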
Description: SANGER: Inhibition of human KLE cell growth in a cell viability assay.

SW982 = type: functional, cell-based; conditions: Homo sapiens;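 note: growth inhibition of SW982 cells, read out with a cell viability assay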
Description: SANGER: Inhibition of human SW982 cell growth in a cell viability assay.

LB996-RCC = type: functional, cell-based; conditions: Homo sapiens
Description: SANGER: Inhibition of human LB996-RCC cell growth in a cell viability assay.

Work on `CC(=O)O[C@@]12CO[C@@H]1C[C@H](O)[C@@]1(C)C(=O)[C@H](O)C3=C(C)[C@@H](OC(=O)[C@H](O)[C@@H](NC(=O)OC(C)(C)C)c4ccccc4)C[C@@](O)([C@@H](OC(=O)c4ccccc4)[C@H]21)C3(C)C` [DOCETAXEL] yielded an IC50 (MSTO-211H) greater than 10 nM, an IC50 (KP-4) of 1.56 nM and an IC50 (EM-2) of 6.23 nM. For the same compound, the IC50 (EFO-27) was 1.02 nM, the IC50 (KM12) was 4.08 nM and the IC50 (HSC-2) was 0.755 nM. For the same compound, the IC50 (TE-11) was 0.569 nM, the IC50 (BHY) was 2.16 nM and the IC50 (SK-MEL-30) was 7.32 nM. For the same compound, the IC50 (M059J) was 1.98 nM, the IC50 (D-542MG) was greater than 10 nM and the IC50 (COR-L88) was greater than 10 nM. The IC50 (SNU-C2B) was greater than 10 nM, the IC50 (OAW-28) was greater than 10 nM and the IC50 (Ramos-2G6-4C10) was greater than 10 nM. For the same compound, the IC50 (FaDu) was 5.1 nM, the IC50 (RPMI-2650) was 2.46 nM and the IC50 (MDA-MB-361) was 2.81 nM. It also gave an IC50 (GR-ST) greater than 10 nM, an IC50 (COLO-680N) of 5.08 nM and an IC50 (COLO-678) greater than 10 nM. The IC50 (KYSE-180) was 1.35 nM, the IC50 (NCI-H358) was 7.58 nM and the IC50 (PFSK-1) was 0.657 nM. It also gave an IC50 (KP-N-YS) greater than 10 nM, an IC50 (A204) of 9.34 nM and an IC50 (NCI-H1563) greater than 10 nM. For the same compound, the IC50 (Ca9-22) was 0.423 nM, the IC50 (NMC-G1) was 0.517 nM and the IC50 (HTC-C3) was 2.85 nM. For the same compound, the IC50 (ACHN) was greater than 10 nM, the IC50 (MKN-7) was greater than 10 nM and the IC50 (MDA-MB-415) was 2.74 nM. The IC50 (D-336MG) was 1.69 nM, the IC50 (TE-12) was greater than 10 nM and the IC50 (NCI-H1437) was 2.6 nM. It also gave an IC50 (SK-HEP1) of 2.34 nM, an IC50 (LCLC-103H cell line) of 2.93 nM and an IC50 (MDA-MB-175-VII) greater than 10 nM. The IC50 (CAKI-1) was greater than 10 nM, the IC50 (ES7) was 0.389 nM and the IC50 (KNS-42) was 4.12 nM. For the same compound, the IC50 (NOS-1) was greater than 10 nM, the IC50 (8505C) was 0.854 nM and the IC50 (HuCCT-1) was 5.68 nM. It also gave an IC50 (8-MG-BA) of 0.589 nM, an IC50 (WM-115) of 6.27 nM and an IC50 (KLE) greater than 10 nM. It also gave an IC50 (SW982) of 1.27 nM.
`O=C1N=C(NCc2cccs2)S/C1=C\c1ccc2ncccc2c1` gave an IC50 (MSTO-211H) greater than 5000 nM, an IC50 (KP-4; read-out: IC50) greater than 5000 nM and an IC50 (EM-2) greater than 5000 nM. For the same compound, the IC50 (EFO-27) was greater than 5000 nM, the IC50 (KM12) was greater than 5000 nM and the IC50 (HSC-2) was greater than 5000 nM. The IC50 (TE-11) was greater than 5000 nM, the IC50 (BHY) was greater than 5000 nM and the IC50 (SK-MEL-30) was greater than 5000 nM. For the same compound, the IC50 (M059J) was greater than 5000 nM, the IC50 (COR-L88) was 3480 nM and the IC50 (SNU-C2B) was greater than 5000 nM. The IC50 (OAW-28) was greater than 5000 nM, the IC50 (Ramos-2G6-4C10) was greater than 5000 nM and the IC50 (FaDu) was greater than 5000 nM. For the same compound, the IC50 (RPMI-2650) was greater than 5000 nM, the IC50 (LB996-RCC) was greater than 5000 nM and the IC50 (MDA-MB-361) was greater than 5000 nM. The IC50 (GR-ST) was greater than 5000 nM, the IC50 (COLO-680N) was greater than 5000 nM and the IC50 (COLO-678) was greater than 5000 nM. It also gave an IC50 (KYSE-180) greater than 5000 nM, an IC50 (NCI-H358) greater than 5000 nM and an IC50 (PFSK-1) greater than 5000 nM. The IC50 (KP-N-YS) was greater than 5000 nM, the IC50 (A204) was greater than 5000 nM and the IC50 (NCI-H1563) was greater than 5000 nM. For the same compound, the IC50 (Ca9-22) was greater than 5000 nM, the IC50 (NMC-G1) was greater than 5000 nM and the IC50 (HTC-C3) was greater than 5000 nM. It also gave an IC50 (ACHN) greater than 5000 nM, an IC50 (MKN-7) greater than 5000 nM and an IC50 (MDA-MB-415) greater than 5000 nM. The IC50 (D-336MG) was greater than 5000 nM, the IC50 (TE-12) was greater than 5000 nM and the IC50 (NCI-H1437) was greater than 5000 nM. For the same compound, the IC50 (SK-HEP1) was greater than 5000 nM, the IC50 (LCLC-103H cell line) was greater than 5000 nM and the IC50 (MDA-MB-175-VII) was greater than 5000 nM. The IC50 (CAKI-1) was greater than 5000 nM, the IC50 (ES7) was greater than 5000 nM and the IC50 (KNS-42) was greater than 5000 nM. It also gave an IC50 (NOS-1) greater than 5000 nM, an IC50 (8505C) greater than 5000 nM and an IC50 (HuCCT-1) greater than 5000 nM. It also gave an IC50 (8-MG-BA) of 3140 nM, an IC50 (WM-115) greater than 5000 nM and an IC50 (KLE) greater than 5000 nM. The IC50 (SW982) was greater than 5000 nM.
